Source: the NIST ThermoML archive (doi:10.1016/j.tca.2011.01.001)
± gives the expanded uncertainty stated by the source.

Columns and labels:
[1] = Molar enthalpy of transition or fusion; conditions: Crystal; DSC

O=C(O)c1ccc(O)cc1O [2,4-dihydroxybenzoic acid]
Molar enthalpy of transition or fusion [1]: 7.41 ± 0.478 kcal/mol | vapor or sublimation pressure (364.2 K, Crystal, Torsion effusion method): 6.2e-05 ± 3e-06 kPa | vapor or sublimation pressure (365.3 K, Crystal, Torsion effusion method): 7e-05 ± 4e-06 kPa | vapor or sublimation pressure (366.3 K, Crystal, Torsion effusion method): 8e-05 ± 4e-06 kPa | vapor or sublimation pressure (367.1 K, Crystal, Torsion effusion method): 8.9e-05 ± 5e-06 kPa | vapor or sublimation pressure (368.3 K, Crystal, Torsion effusion method): 0.000101 ± 5e-06 kPa | vapor or sublimation pressure (369.6 K, Crystal, Torsion effusion method): 0.000116 ± 6e-06 kPa | vapor or sublimation pressure (370.8 K, Crystal, Torsion effusion method): 0.000131 ± 7e-06 kPa | vapor or sublimation pressure (372.5 K, Crystal, Torsion effusion method): 0.000155 ± 8e-06 kPa | vapor or sublimation pressure (374.2 K, Crystal, Torsion effusion method): 0.000187 ± 9e-06 kPa | vapor or sublimation pressure (375.7 K, Crystal, Torsion effusion method): 0.000218 ± 1.1e-05 kPa | vapor or sublimation pressure (377.1 K, Crystal, Torsion effusion method): 0.000255 ± 1.3e-05 kPa | vapor or sublimation pressure (379 K, Crystal, Torsion effusion method): 0.000312 ± 1.6e-05 kPa | vapor or sublimation pressure (380.3 K, Crystal, Torsion effusion method): 0.000353 ± 1.8e-05 kPa | vapor or sublimation pressure (382.5 K, Crystal, Torsion effusion method): 0.000391 ± 2e-05 kPa | vapor or sublimation pressure (383 K, Crystal, Torsion effusion method): 0.000423 ± 2.1e-05 kPa | vapor or sublimation pressure (384.1 K, Crystal, Torsion effusion method): 0.000512 ± 2.6e-05 kPa | vapor or sublimation pressure (385.2 K, Crystal, Torsion effusion method): 0.000576 ± 2.9e-05 kPa | vapor or sublimation pressure (387.3 K, Crystal, Torsion effusion method): 0.000655 ± 3.3e-05 kPa | vapor or sublimation pressure (388.1 K, Crystal, Torsion effusion method): 0.000735 ± 3.7e-05 kPa | vapor or sublimation pressure (389.2 K, Crystal, Torsion effusion method): 0.000821 ± 4.1e-05 kPa | vapor or sublimation pressure (390.1 K, Crystal, Torsion effusion method): 0.000912 ± 4.6e-05 kPa | vapor or sublimation pressure (511.2 K, Liquid, Non-isothermal TG): 2.825 ± 0.6 kPa | vapor or sublimation pressure (511.7 K, Liquid, Non-isothermal TG): 2.896 ± 0.61 kPa | vapor or sublimation pressure (512.2 K, Liquid, Non-isothermal TG): 3.022 ± 0.62 kPa | vapor or sublimation pressure (512.7 K, Liquid, Non-isothermal TG): 3.073 ± 0.63 kPa | vapor or sublimation pressure (513.3 K, Liquid, Isothermal TG): 3.108 ± 0.64 kPa | vapor or sublimation pressure (513.8 K, Liquid, Isothermal TG): 3.111 ± 0.64 kPa | vapor or sublimation pressure (514.3 K, Liquid, Isothermal TG): 3.167 ± 0.66 kPa | vapor or sublimation pressure (514.8 K, Liquid, Non-isothermal TG): 3.343 ± 0.68 kPa | vapor or sublimation pressure (515.3 K, Liquid, Non-isothermal TG): 3.35 ± 0.68 kPa | vapor or sublimation pressure (515.8 K, Liquid, Non-isothermal TG): 3.458 ± 0.7 kPa | vapor or sublimation pressure (516.4 K, Liquid, Non-isothermal TG): 3.553 ± 0.73 kPa | vapor or sublimation pressure (516.9 K, Liquid, Isothermal TG): 3.606 ± 0.73 kPa | vapor or sublimation pressure (517.4 K, Liquid, Isothermal TG): 3.622 ± 0.74 kPa | vapor or sublimation pressure (517.9 K, Liquid, Isothermal TG): 3.638 ± 0.74 kPa | vapor or sublimation pressure (518.4 K, Liquid, Isothermal TG): 3.711 ± 0.76 kPa | vapor or sublimation pressure (518.9 K, Liquid, Non-isothermal TG): 3.901 ± 0.8 kPa | vapor or sublimation pressure (519.4 K, Liquid, Non-isothermal TG): 3.97 ± 0.81 kPa | vapor or sublimation pressure (519.9 K, Liquid, Non-isothermal TG): 4.016 ± 0.82 kPa | vapor or sublimation pressure (520.4 K, Liquid, Non-isothermal TG): 4.161 ± 0.84 kPa | vapor or sublimation pressure (520.9 K, Liquid, Isothermal TG): 4.222 ± 0.86 kPa | vapor or sublimation pressure (521.4 K, Liquid, Isothermal TG): 4.207 ± 0.86 kPa | vapor or sublimation pressure (521.9 K, Liquid, Isothermal TG): 4.223 ± 0.86 kPa | vapor or sublimation pressure (522.4 K, Liquid, Isothermal TG): 4.342 ± 0.89 kPa | vapor or sublimation pressure (522.9 K, Liquid, Non-isothermal TG): 4.463 ± 0.91 kPa | vapor or sublimation pressure (523.4 K, Liquid, Non-isothermal TG): 4.543 ± 0.92 kPa | vapor or sublimation pressure (523.9 K, Liquid, Non-isothermal TG): 4.649 ± 0.94 kPa | vapor or sublimation pressure (524.4 K, Liquid, Non-isothermal TG): 4.833 ± 0.98 kPa | vapor or sublimation pressure (525.4 K, Liquid, Isothermal TG): 4.975 ± 1 kPa | vapor or sublimation pressure (526.4 K, Liquid, Isothermal TG): 5.059 ± 1 kPa | vapor or sublimation pressure (526.9 K, Liquid, Isothermal TG): 5.093 ± 1 kPa | vapor or sublimation pressure (527.4 K, Liquid, Isothermal TG): 5.122 ± 1 kPa | vapor or sublimation pressure (528.4 K, Liquid, Non-isothermal TG): 5.41 ± 1.1 kPa | vapor or sublimation pressure (528.9 K, Liquid, Non-isothermal TG): 5.477 ± 1.1 kPa | vapor or sublimation pressure (529.4 K, Liquid, Non-isothermal TG): 5.483 ± 1.1 kPa | vapor or sublimation pressure (529.9 K, Liquid, Non-isothermal TG): 5.556 ± 1.1 kPa | vapor or sublimation pressure (530.4 K, Liquid, Isothermal TG): 5.598 ± 1.1 kPa | vapor or sublimation pressure (530.9 K, Liquid, Isothermal TG): 5.667 ± 1.1 kPa | vapor or sublimation pressure (531.5 K, Liquid, Isothermal TG): 5.675 ± 1.2 kPa | vapor or sublimation pressure (532 K, Liquid, Isothermal TG): 5.825 ± 1.2 kPa | vapor or sublimation pressure (532.5 K, Liquid, Non-isothermal TG): 5.928 ± 1.2 kPa | vapor or sublimation pressure (533 K, Liquid, Non-isothermal TG): 6.061 ± 1.2 kPa | vapor or sublimation pressure (533.5 K, Liquid, Isothermal TG): 6.226 ± 1.3 kPa | vapor or sublimation pressure (534 K, Liquid, Isothermal TG): 6.322 ± 1.3 kPa | Normal melting temperature (Crystal, DTA): 228.6 ± 0.5 °C
